System: COVID-19 infection
Experiment: Phase IIa study: COVID-19 PRO frequency score
Type: in vivo, human
From the text: Subjects were enrolled in two cohorts. The treatment cohort consists of subjects receiving camostat mesylate, and the control cohort consists of subjects receiving a placebo. […] The control cohort received a placebo four times daily for seven days.
Subjects self-administered Likert-type symptom score evaluations daily from days 0-14, wherein subjects provided a ranking (i.e., 0—not at all, 1—a little bit, 2—somewhat, 3—quite a bit, and 4—very much) in response to various symptoms (e.g., nose, throat, eyes, chest/respiratory, gastrointestinal, body/systemic, and smell/taste symptoms) (Table 1).
The COVID-19 PRO daily self-score tool consists of 39 items that are answered daily by the subject. Items 1-33 are Likert-scale questions (e.g., rated 0-4), wherein 0=not at all, and 4=very much. These items are summed to score the severity of symptoms, wherein a total score of 132 would indicate the greatest severity of symptoms and a score of 0 would indicate no severity of symptoms.
Additional statistical models were applied to the raw data, which are provided herein (Tables 8-10).

CN(C)C(=O)COC(=O)Cc1ccc(OC(=O)c2ccc(NC(=N)N)cc2)cc1 [camostat, 4-[[4-[(Aminoiminomethyl)amino]benzoyl]oxy]benzeneacetic acid 2-(dimethylamino)-2-oxoethyl ester]
frequency score, Fitzmaurice mixed effects model, A: Camostat arm (day 0): 6.25 (0.47)
frequency score, Fitzmaurice mixed effects model, B − A (placebo − camostat) (day 0): 0
frequency score, Fitzmaurice mixed effects model, A: Camostat arm (day 1): 6.49 (0.57)
frequency score, Fitzmaurice mixed effects model, B − A (placebo − camostat) (day 1): −0.05 (0.67)
frequency score, Fitzmaurice mixed effects model, A: Camostat arm (day 2): 5.51 (0.59)
frequency score, Fitzmaurice mixed effects model, B − A (placebo − camostat) (day 2): −0.03 (0.68)
frequency score, Fitzmaurice mixed effects model, A: Camostat arm (day 3): 5.88 (0.58)
frequency score, Fitzmaurice mixed effects model, B − A (placebo − camostat) (day 3): −0.42 (0.67)
frequency score, Fitzmaurice mixed effects model, A: Camostat arm (day 4): 5.64 (0.58)
frequency score, Fitzmaurice mixed effects model, B − A (placebo − camostat) (day 4): −1.05 (0.68)
frequency score, Fitzmaurice mixed effects model, A: Camostat arm (day 5): 5.54 (0.58)
frequency score, Fitzmaurice mixed effects model, B − A (placebo − camostat) (day 5): −0.96 (0.68)
frequency score, Fitzmaurice mixed effects model, A: Camostat arm (day 6): 4.75 (0.58)
frequency score, Fitzmaurice mixed effects model, B − A (placebo − camostat) (day 6): −0.41 (0.68)
frequency score, Fitzmaurice mixed effects model, A: Camostat arm (day 7): 4.62 (0.59)
frequency score, Fitzmaurice mixed effects model, B − A (placebo − camostat) (day 7): −0.51 (0.68)
frequency score, Fitzmaurice mixed effects model, A: Camostat arm (day 8): 4.39 (0.6)
frequency score, Fitzmaurice mixed effects model, B − A (placebo − camostat) (day 8): −0.9 (0.7)
frequency score, Fitzmaurice mixed effects model, A: Camostat arm (day 9): 3.98 (0.59)
frequency score, Fitzmaurice mixed effects model, B − A (placebo − camostat) (day 9): −0.54 (0.69)
frequency score, Fitzmaurice mixed effects model, A: Camostat arm (day 10): 3.96 (0.6)
frequency score, Fitzmaurice mixed effects model, B − A (placebo − camostat) (day 10): −0.98 (0.69)
frequency score, Fitzmaurice mixed effects model, A: Camostat arm (day 11): 3.8 (0.6)
frequency score, Fitzmaurice mixed effects model, B − A (placebo − camostat) (day 11): −0.9 (0.7)
frequency score, Fitzmaurice mixed effects model, A: Camostat arm (day 12): 2.75 (0.6)
frequency score, Fitzmaurice mixed effects model, B − A (placebo − camostat) (day 12): −0.28 (0.7)
frequency score, Fitzmaurice mixed effects model, A: Camostat arm (day 13): 2.66 (0.62)
frequency score, Fitzmaurice mixed effects model, B − A (placebo − camostat) (day 13): −0.22 (0.72)
frequency score, Fitzmaurice mixed effects model, A: Camostat arm (day 14): 2.44 (0.61)
frequency score, Fitzmaurice mixed effects model, B − A (placebo − camostat) (day 14): −0.13 (0.72)
